From ChEMBL document CHEMBL1649251, “Antischistosomal activity of hexadecyloxypropyl cyclic 9-(S)-[3-hydroxy-2-(phosphonomethoxy)propyl]adenine and other alkoxyalkyl esters of acyclic nucleoside phosphonates assessed by schistosome worm killing in vitro” (Antimicrob Agents Chemother, 2009)

Columns and labels:
Schistosoma mansoni [1] = assay: Antischistosomal activity against Schistosoma mansoni isolated from infected Syrian golden hamsters assessed as worm mortality at 50 uM treated for overnight followed by drug washout measured on day 5 relative to control; format: functional
Schistosoma mansoni [2] = assay: Antischistosomal activity against Schistosoma mansoni isolated from infected Syrian golden hamsters assessed as worm mortality at 25 uM treated for overnight followed by drug washout measured on day 5 relative to control; format: functional
Schistosoma mansoni [3] = assay: Antischistosomal activity against Schistosoma mansoni isolated from infected Syrian golden hamsters assessed as worm mortality at 100 uM treated for overnight followed by drug washout measured on day 5 relative to control; format: functional
Schistosoma mansoni [4] = assay: Antischistosomal activity against Schistosoma mansoni isolated from infected Syrian golden hamsters assessed as worm mortality at 12.5 uM treated for overnight followed by drug washout measured on day 5 relative to control; format: functional
Schistosoma mansoni [5] = assay: Antischistosomal activity against Schistosoma mansoni isolated from infected Syrian golden hamsters assessed as worm mortality at 75 uM treated for overnight followed by drug washout measured on day 5 relative to control; format: functional
Schistosoma mansoni [6] = assay: Antischistosomal activity against Schistosoma mansoni isolated from infected Syrian golden hamsters assessed as worm mortality at 5 uM treated for overnight followed by drug washout measured on day 5; format: functional
Schistosoma mansoni [7] = assay: Antischistosomal activity against Schistosoma mansoni isolated from infected Syrian golden hamsters assessed as worm mortality treated for overnight followed by drug washout measured on day 5; format: functional, organism-based; details: 120 h

Compound: CCCCCCCCCCCCCCCCOCCCOP1(=O)CO[C@@H](Cn2ccc(N)nc2=O)CO1 (stereo partly specified)
- Activity (Schistosoma mansoni [1]): 67%
- Activity (Schistosoma mansoni [2]): 36%
- Activity (Schistosoma mansoni [3]): 100%
- Activity (Schistosoma mansoni [4]): 33%
- Activity (Schistosoma mansoni [5]): 64%
- Activity (Schistosoma mansoni [6]): 13%
- EC50 (Schistosoma mansoni [7]): 28 µM

Compound: CCCCCCCCCCCCCCCCCCOCCOP(=O)(O)CO[C@H](CO)Cn1cnc2c(N)nc(N)nc21
- Activity (Schistosoma mansoni [1]): 33%
- Activity (Schistosoma mansoni [2]): 14%
- Activity (Schistosoma mansoni [3]): 40%
- Activity (Schistosoma mansoni [4]): 8%
- Activity (Schistosoma mansoni [5]): 40%
- Activity (Schistosoma mansoni [6]): 7%
- EC50 (Schistosoma mansoni [7]): > 100 µM

Compound: CCCCCCCCCCCCCCCCOCCCOP1(=O)CO[C@@H](Cn2cnc3c(N)ncnc32)CO1 (stereo partly specified)
- Activity (Schistosoma mansoni [1]): 78.6%
- Activity (Schistosoma mansoni [2]): 69.2%
- Activity (Schistosoma mansoni [3]): 93.3%
- Activity (Schistosoma mansoni [4]): 53.8%
- Activity (Schistosoma mansoni [5]): 84.6%
- Activity (Schistosoma mansoni [6]): 50%
- EC50 (Schistosoma mansoni [7]): 5 µM

Compound: CCCCCCCCCCCCCCCCCCOCCOP(=O)(O)CO[C@H](CO)Cn1cnc2c(N)ncnc21
- Activity (Schistosoma mansoni [1]): 40%
- Activity (Schistosoma mansoni [2]): 25%
- Activity (Schistosoma mansoni [3]): 47%
- Activity (Schistosoma mansoni [4]): 12.5%
- Activity (Schistosoma mansoni [5]): 33%
- Activity (Schistosoma mansoni [6]): 12.5%
- EC50 (Schistosoma mansoni [7]): > 100 µM

Compound: O=C(C1CCCCC1)N1CC(=O)N2CCc3ccccc3C2C1 (stereo unspecified) [PRAZIQUANTEL]
- Activity (Schistosoma mansoni [1]): 100%
- Activity (Schistosoma mansoni [2]): 100%
- Activity (Schistosoma mansoni [3]): 100%
- Activity (Schistosoma mansoni [4]): 100%
- Activity (Schistosoma mansoni [5]): 100%
- Activity (Schistosoma mansoni [6]): 100%
- EC50 (Schistosoma mansoni [7]): 0.22 µM

Compound: CCCCCCCCCCCCCCCCOCCCOP(=O)(O)CO[C@H](CO)Cn1cnc2c(N)ncnc21
- Activity (Schistosoma mansoni [1]): 32.3%
- Activity (Schistosoma mansoni [2]): 18.8%
- Activity (Schistosoma mansoni [3]): 30.8%
- Activity (Schistosoma mansoni [4]): 12.5%
- Activity (Schistosoma mansoni [5]): 28.6%
- Activity (Schistosoma mansoni [6]): 6.25%
- EC50 (Schistosoma mansoni [7]): > 100 µM

Compound: CCCCCCCCCCCCCCCCCCOCCOP(=O)(O)CO[C@H](CO)Cn1cnc2c(=O)[nH]c(N)nc21
- Activity (Schistosoma mansoni [1]): 20%
- Activity (Schistosoma mansoni [2]): 15%
- Activity (Schistosoma mansoni [3]): 33%
- Activity (Schistosoma mansoni [4]): 7%
- Activity (Schistosoma mansoni [5]): 36%
- Activity (Schistosoma mansoni [6]): 13%
- EC50 (Schistosoma mansoni [7]): > 100 µM

Compound: Nc1ncnc2c1ncn2C[C@@H](CO)OCP(=O)(O)O
- Activity (Schistosoma mansoni [1]): 7%
- Activity (Schistosoma mansoni [2]): 7%
- Activity (Schistosoma mansoni [3]): 13%
- Activity (Schistosoma mansoni [4]): 6.25%
- Activity (Schistosoma mansoni [5]): 12.5%
- Activity (Schistosoma mansoni [6]): 6.7%
- EC50 (Schistosoma mansoni [7]): > 100 µM
